This is an account of results in US9302998B2, “Aryl triazole compounds with antitumoural activity” (SIGMA-TAU RESEARCH SWITZERLAND S.A., priority 2010, dated 2016).

Some results are limits rather than exact numbers.

One experiment has as its system HeLa cervix uteri. Put plainly: Sulphorodamine B test at single concentration, HeLa. The class given is cell-based. The note with it: Homo sapiens, 500 nM, 72 h. As to the method: (§1) The antiproliferative activity of novel Hsp90 inhibitors was also evaluated on various cancerous cell lines by means of the sulphorodamine B test (i.e., NCI-H460 non-small cell lung carcinoma, A431 epidermoid, A2780 ovarian, MDA-MB436 triple-negative breast, U87MG glioblastoma, A498 renal, HCT116 colon, MeWo melanoma, MiaPaCa2 pancreas, HeLa cervix uteri, NB4 promyelocytic leukemia). NCI-H460, A431, MDA-MB436, A2780, A498, HeLa, NB4 tumour cells were grown in RPMI 1640 containing 10% fetal bovine serum (i.e., FBS from GIBCO), L-glutamine, and 50 μg/ml gentamycin sulfate.
(§2) All cell lines were maintained in a 37° C. incubator with saturated humidity and an atmosphere containing 95% air and 5% CO2, and were sub-cultured every 2-3 days. Tumour cells were seeded in 96-well tissue culture plates at approximately 10% confluence and were allowed to attach and recover for 24 h.
(§3) Varying concentrations of the drugs were then added to each well to calculate their IC50 value (the concentration which inhibits the 50% of cell survival). The plates were incubated at 37° C. for 72 h. At the end of the treatment, the plates were washed by remotion of the supernatant and addition of PBS 3 times. 200 μl PBS and 50 μl of cold 80% trichloroacetic acid (TCA) were added. The plates were incubated on ice for at least 1 h. TCA was removed, the plates were washed 3 times by immersion in distilled-water and dried on paper and at 40° C. for […]. Then 200 μl of 0.4% sulphorodamine B in 1% acetic acid were added. The plates were incubated at room temperature for 30 min. Sulphorodamine B was removed, the plates were washed by immersion in 1% acetic acid for 3 times, then they were dried on paper and at 40° C. for 5 min. Then, 200 μl Tris 10 mM were added, the plates were kept under stirring for 20 min. The cell survival was determined as optical density by a Multiskan […] at 540 nm. The amount of cells killed was calculated as the percentage decrease in sulphorodamine B binding compared with control cultures.
(§4) The other cell lines were screened against one single concentration of the various inhibitors (i.e., 500 nM), all experiments being made in octuplicate, following the protocol described at example 35. Since NB4 cell line was grown in suspension, a further step of centrifugation (i.e., 1600 g for 10 min) was added after the 72 hour incubation period.

The subject of a further experiment is HCT116 colon. The experiment is described as follows: Sulphorodamine B test at single concentration, HCT116. The class given is cell-based. The note with it: Homo sapiens, HCT-116; 500 nM, 72 h. The protocol: as §1
HCT116 cells were cultured in McCoy's medium containing 10% FBS, L-glutamine, and 50 μg/ml gentamycin sulfate.
as §2, §3, §4

The test system of the next experiment is A498 renal. The experiment is described as follows: Sulphorodamine B test at single concentration, A498. The format is cell-based. The note with it: Homo sapiens, 500 nM, 72 h. The protocol:
as §1, §2, §3, §4

The test system of another experiment is U87MG glioblastoma. Put plainly: Sulphorodamine B test at single concentration, U87MG. The class given is cell-based. The note with it: Homo sapiens, U-87 MG; 500 nM, 72 h. The protocol: as §1
(§5) MeWo and U87-MG cells were cultured in Eagle's Minimum Essential Medium (i.e., EMEM) containing 10% FBS, L-glutamine, 1 mM sodium pyruvate, 0.1 mM non-essential amino acids, 1.5 g/l sodium bicarbonate, and 50 μg/ml gentamycin sulphate.
as §2, §3, §4

Another experiment has as its system A2780 ovarian. The experiment is described as follows: Sulphorodamine B test at single concentration, A2780. The class given is cell-based. The note with it: Homo sapiens, 500 nM, 72 h. As to the method: as §1, §2, §3, §4
For a further experiment, the system named is MeWo melanoma. Put plainly: Sulphorodamine B test at single concentration, MeWo. The class given is cell-based. The note with it: Homo sapiens, 500 nM, 72 h. The protocol:
as §1, §5, §2, §3, §4

The test system of experiment [1] is NB4 promyelocytic leukemia. The experiment is described as follows: Sulphorodamine B test at single concentration, NB4. The note with it: 500 nM, 72 h, suspension cells. The class given is cell-based. The protocol:
as §1, §2, §3, §4

For a further experiment, the system named is MiaPaCa2 pancreas. Put plainly: Sulphorodamine B test at single concentration, MiaPaCa2. The class given is cell-based. The note with it: Homo sapiens, MIA PaCa-2; 500 nM, 72 h. As to the method:
as §1
MiaPaCa2 cells were cultured in DMEM medium containing 10% FBS, L-glutamine, and 50 μg/ml gentamycin sulfate.
as §2, §3, §4

Experiment [2] relates to MDA-MB436 triple-negative breast. Put plainly: Sulphorodamine B test at single concentration, MDA-MB436. The class given is cell-based. The note with it: Homo sapiens, MDA-MB-436; 500 nM, 72 h. As to the method: as §1, §2, §3, §4
In the next experiment the test system is A431 epidermoid. Put plainly: Sulphorodamine B test at single concentration, A431. The note with it: Homo sapiens, A-431; 500 nM, 72 h. The class given is cell-based. The protocol: as §1, §2, §3, §4
The next experiment deals with T1, Hsp90 (Homo sapiens, UniProt P07900).
T1 construct: purchased Stressgen SPP-776
The experiment is described as follows: Fluorescence Polarization (FP) binding, GM-BODIPY displacement from Hsp90. The note with it: GM-BODIPY tracer, 4° C. for 4 hours. The protocol:
GM-BODIPY (PerkinElmer, CUSN60342000MG) was previously dissolved in DMSO to obtain 10 mM stock solutions and kept at −20° C. until use.
Hsp90 (Stressgen, SPP-776), was previously dissolved in assay buffer (HFB) to form 2.2 μM stock solutions and kept at −80° C. until use.
The compounds were previously dissolved in DMSO to obtain stock solutions and kept at −20° C. The day of experiment, the compounds were prepared by serial dilutions in assay buffer (HFB) containing 20 mM HEPES (K) pH 7.3, 50 mM KCl, 5 mM MgCl2, 20 mM Na2MoO4 and 0.01% NP40. Before each use, 0.1 mg/ml Bovine Gamma globulin and 2 mM DTT were freshly added.
Fluorescence Polarization (FP) was performed in Opti-Plate™-96F well plates (Perkin Elmer, Zaventem, Belgium) using a plate reader (Wallac Envision 2101 multilabel reader, Perkin Elmer, Zaventem, Belgium). To evaluate the binding affinity of the molecules, 50 μl of the GM-BODIPY solution (100 nM) were added to 125 nM of Hsp90 in the presence of 5 μl of the test compounds at increasing concentrations. The plate was mixed on a shaker at 4° C. for 4 hours, and the FP values in mP (millipolarization units) were recorded. The IC50 values were calculated as the inhibitor concentration where 50% of the tracer is displaced; each data point is the result of the average of triplicate wells, and was determined from a plot using nonlinear least-squares analysis. Curve fitting was performed using
Prism GraphPad software program (GraphPad software, Inc., San Diego, Calif.).
In general terms: Polarisation of emitted light reports the rotation of a fluorescent probe.

Experiment [3] deals with NCI-H460 non-small cell lung carcinoma. The experiment is described as follows: Cytotoxicity assay, sulphorodamine B test, NCI-H460. The class given is cell-based. The note with it: Homo sapiens, NCI-H460; 72 h, sulphorodamine B. The protocol:
as §1, §2, §3

The inhibition is the share of the control response that was lost under treatment. A lower inhibition goes with little suppression. The IC50 is the concentration at which inhibition is half-maximal. A high value points to a need for much substance.

In the case of `CCNC(=O)c1nnn(-c2cc(C(C)C)c(O)cc2O)c1-c1ccc(CN2CCCCC2CCO)cc1` (stereo not drawn) [Example 8, 1-(2,4-dihydroxy-5-isopropyl-phenyl)-5-{4-[2-(2-hydroxy-ethyl)-piperidin-1-ylmethyl]-phenyl}-1H-[1,2,3]triazole-4-carboxylic acid ethylamide], the inhibition at 0.5 µM is not below 50% in the experiment with HeLa cervix uteri; not below 50% in the experiment with HCT116 colon; 30 to 50% in the experiment with A498 renal; not below 50% in the experiment with U87MG glioblastoma; not below 50% in the experiment on A2780 ovarian; not below 50% in the experiment with MeWo melanoma. For the same compound, the inhibition at 0.5 µM (in experiment [1]; with MiaPaCa2 pancreas; in [2]; in the experiment on A431 epidermoid) was not below 50% throughout. Further, the IC50 on Hsp90 was less than 50 nM; in experiment [3] it was 100 to 500 nM.

For the compound `CCNC(=O)c1nnn(-c2cc(C(C)C)c(O)cc2O)c1-c1ccc(CN2CCCCC2)cc1` [Example 9, 1-(2,4-dihydroxy-5-isopropyl-phenyl)-5-(4-piperidin-1-ylmethyl-phenyl)-1H-[1,2,3]triazole-4-carboxylic acid ethylamide], the inhibition at 0.5 µM in the experiment on HeLa cervix uteri, with HCT116 colon, with A498 renal, in the experiment with U87MG glioblastoma, with A2780 ovarian and in the experiment on MeWo melanoma was not below 50% in each case. Also, the inhibition at 0.5 µM (in [1]; with MiaPaCa2 pancreas; in experiment [2]; in the experiment with A431 epidermoid) was not below 50% throughout. In addition, the IC50 (at Hsp90; in experiment [3]) was less than 50 nM throughout.

With `CCNC(=O)c1nnn(-c2cc(C(C)C)c(O)cc2O)c1-c1ccc(CN2CCN(C)CC2)cc1` [Example 11, 1-(2,4-dihydroxy-5-isopropyl-phenyl)-5-[4-(4-methyl-piperazin-1-ylmethyl)-phenyl]-1H-[1,2,3]triazole-4-carboxylic acid ethylamide], the inhibition at 0.5 µM in the experiment with HeLa cervix uteri, with HCT116 colon, with A498 renal, in the experiment with U87MG glioblastoma, in the experiment on A2780 ovarian and with MeWo melanoma was not below 50% in each case. Further, the inhibition at 0.5 µM (in experiment [1]; in the experiment on MiaPaCa2 pancreas; in experiment [2]; in the experiment on A431 epidermoid) was not below 50% each time. In addition, the concentration for half-maximal inhibition (IC50) (on Hsp90; in experiment [3]) was less than 50 nM each time.

Regarding `CCNC(=O)c1nnn(-c2cc(C(C)C)c(O)cc2O)c1-c1ccc(CNCC2CCCCC2)cc1` [Example 15, 5-{4-[(cyclohexylmethyl-amino)-methyl]-phenyl}-1-(2,4-dihydroxy-5-isopropyl-phenyl)-1H-[1,2,3]triazole-4-carboxylic acid ethylamide], the inhibition at 0.5 µM with HeLa cervix uteri, in the experiment on HCT116 colon, in the experiment with A498 renal, with U87MG glioblastoma, in the experiment with A2780 ovarian and with MeWo melanoma was not below 50% in each case. For the same compound, the inhibition at 0.5 µM (in experiment [1]; in the experiment with MiaPaCa2 pancreas; in [2]; in the experiment on A431 epidermoid) was not below 50% throughout. Besides, the half-inhibitory concentration (IC50) (on Hsp90; in experiment [3]) was less than 50 nM each time.

For `CCNC(=O)c1nnn(-c2cc(C(C)C)c(O)cc2O)c1-c1ccc(CNCCN(CC)CC)cc1` [Example 17, 5-{4-[(2-diethylamino-ethylamino)-methyl]-phenyl}-1-(2,4-dihydroxy-5-isopropyl-phenyl)-1H-[1,2,3]triazole-4-carboxylic acid ethylamide], the inhibition at 0.5 µM was 30 to 50% with HeLa cervix uteri; 30 to 50% in the experiment on HCT116 colon; 30 to 50% in the experiment on A498 renal; not below 50% with U87MG glioblastoma; not below 50% in the experiment on A2780 ovarian; not below 50% in the experiment on MeWo melanoma. The inhibition at 0.5 µM (in [1]; in the experiment with MiaPaCa2 pancreas; in [2]; in the experiment on A431 epidermoid) was not below 50% throughout. Also, the half-inhibitory concentration (IC50) was less than 50 nM on Hsp90 and 100 to 500 nM in experiment [3].

Take `CCNC(=O)c1nnn(-c2cc(C(C)C)c(O)cc2O)c1-c1ccc(CN2CC[C@H](N(C)C)C2)cc1` [Example 20, 1-(2,4-dihydroxy-5-isopropyl-phenyl)-5-[4-((S)-3-dimethylamino-pyrrolidin-1-ylmethyl)-phenyl]-1H-[1,2,3]triazole-4-carboxylic acid ethylamide]: the inhibition at 0.5 µM in the experiment on HeLa cervix uteri is not below 50%; in the experiment on HCT116 colon, not below 50%; in the experiment on A498 renal it was 30 to 50%; in the experiment on U87MG glioblastoma it was not below 50%; with A2780 ovarian it was not below 50%; with MeWo melanoma it was not below 50%. The inhibition at 0.5 µM (in experiment [1]; in the experiment on MiaPaCa2 pancreas; in [2]; in the experiment on A431 epidermoid) was not below 50% in each case. The half-inhibitory concentration (IC50) (at Hsp90; in [3]) was less than 50 nM each time.

For the compound `CCCCCCNC(=O)c1nnn(-c2cc(C(C)C)c(O)cc2O)c1-c1ccc(CN2CCOCC2)cc1` [Example 27, 1-(2,4-dihydroxy-5-isopropyl-phenyl)-5-(4-morpholin-4-ylmethyl-phenyl)-1H-[1,2,3]triazole-4-carboxylic acid hexylamide], the inhibition at 0.5 µM with HeLa cervix uteri, with HCT116 colon, with A498 renal, in the experiment with U87MG glioblastoma, in the experiment on A2780 ovarian and with MeWo melanoma was not below 50% throughout. Besides, the inhibition at 0.5 µM (in experiment [1]; with MiaPaCa2 pancreas; in experiment [2]; in the experiment on A431 epidermoid) was not below 50% each time. Also, the half-maximal inhibitory concentration (IC50) (at Hsp90; in experiment [3]) was less than 50 nM throughout.
